Data: US9150566B2, “2-(1,2,3-triazol-2-yl)benzamide and 3-(1,2,3-triazol-2-YL)picolinamide derivatives as orexin receptor antagonists” (ACTELION PHARMACEUTICALS LTD., priority 2011, dated 2015)
pIC50: −log10 of the molar value. Like-named read-outs stand apart in the source and are kept apart here.

Columns and labels:
rat [1] = settings: rat model; cited from earlier work
humans = settings: cited from earlier work
rats [2] = settings: cited from earlier work
rat [3] = settings: cited from earlier work
fasted hungry rats = fasted hungry rats exposed to food odors; cited from earlier work
rat [4] = settings: rat fear-potentiated startle paradigm; cited from earlier work
[5] = test system: amyloid precursor protein transgenic mice; settings: after acute sleep restriction, APP transgenic mice; cited from earlier work
mouse = mouse model of depression, administered chronically; cited from earlier work
rats [6] = settings: rats treated with the compound; cited from earlier work
CYP3A4 = CYP3A4 (Homo sapiens (Human), UniProt P08684); experiment: CYP3A4 inhibition assay (human liver microsomes, testosterone 6β-hydroxylation); settings: read-out: CYP3A4 IC50, 40 μM testosterone
Sequence of CYP3A4 (P08684 whole entry): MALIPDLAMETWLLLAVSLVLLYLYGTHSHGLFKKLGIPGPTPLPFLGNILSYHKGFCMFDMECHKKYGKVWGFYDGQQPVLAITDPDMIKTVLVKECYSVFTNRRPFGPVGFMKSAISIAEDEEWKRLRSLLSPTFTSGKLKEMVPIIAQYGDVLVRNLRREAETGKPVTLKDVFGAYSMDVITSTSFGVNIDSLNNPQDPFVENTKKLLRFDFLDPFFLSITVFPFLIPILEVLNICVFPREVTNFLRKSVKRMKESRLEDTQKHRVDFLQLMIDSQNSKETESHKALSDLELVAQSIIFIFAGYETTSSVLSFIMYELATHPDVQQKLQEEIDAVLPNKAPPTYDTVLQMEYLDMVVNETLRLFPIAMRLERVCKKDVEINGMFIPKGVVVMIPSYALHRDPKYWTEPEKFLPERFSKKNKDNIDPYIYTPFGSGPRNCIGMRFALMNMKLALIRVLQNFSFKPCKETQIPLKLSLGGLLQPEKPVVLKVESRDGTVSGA

[7] = Measurement of brain and systemic concentration after oral administration; type: in vivo; settings: rat, brain, male wistar rats, oral 100 mg/kg, read-out: brain concentration [B]; for concentration at 1 h: formulated in 10% PEG400/90% MC0.5%, sampled at 1 h
Method: Measurement of Brain and Systemic Concentration after Oral Administration:
In order to assess brain penetration, the concentration of the compound is measured in plasma ([P]), and brain ([B]), sampled 1 h or 3 h (or at different time points) following oral administration (100 mg/kg) to male wistar rats (n=3). The compounds are formulated either in 100% PEG 400 or 10% PEG400/90% MC0.5%. Samples are collected in the same animal at the same time point (+/−5 min). Blood is sampled from the vena cava caudalis into containers with EDTA as anticoagulant and centrifuged to yield plasma. Brain is sampled after cardiac perfusion of 10 mL NaCl 0.9% and homogenized into one volume of cold phosphate buffer (pH 7.4). All samples are extracted with MeOH and analyzed by LC-MS/MS. Concentrations are determined with the help of calibration curves. Inter-individual variations between the three rats were limited. Particular compounds of the present invention tested as described above gave brain concentrations ([B]) as shown in Table 16 below; wherein the compounds of Examples 11-37 and 94 were formulated in 100% PEG400 and sampled at 3 h. All other examples below were formulated in 10% PEG400/90% MC0.5% and sampled at 1 h.

human orexin-1 receptor = human orexin-1 receptor (Homo sapiens (Human), UniProt O43613); experiment: In vitro intracellular calcium measurements (FLIPR), antagonistic activity on orexin-1 receptor; type: cell-based; settings: read-out: IC50 OX1
Sequence of human orexin-1 receptor (O43613 whole entry): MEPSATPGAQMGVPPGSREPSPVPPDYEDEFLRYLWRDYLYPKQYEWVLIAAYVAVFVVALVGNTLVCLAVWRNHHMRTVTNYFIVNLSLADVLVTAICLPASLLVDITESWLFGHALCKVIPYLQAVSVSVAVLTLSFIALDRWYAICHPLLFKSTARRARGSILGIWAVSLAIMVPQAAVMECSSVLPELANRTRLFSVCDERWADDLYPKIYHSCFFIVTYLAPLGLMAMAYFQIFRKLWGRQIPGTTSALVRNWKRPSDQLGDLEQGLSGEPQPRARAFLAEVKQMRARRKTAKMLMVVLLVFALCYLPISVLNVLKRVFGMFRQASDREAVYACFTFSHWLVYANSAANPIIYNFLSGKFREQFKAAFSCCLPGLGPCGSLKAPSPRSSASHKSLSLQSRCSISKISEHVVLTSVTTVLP
Summary of the method: (§1)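 Recombinant CHO lines bearing human OX1 or OX2 receptors received test antagonist 120 min before agonist addition.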

human orexin-2 receptor = human orexin-2 receptor (Homo sapiens (Human), UniProt O43614); experiment: In vitro intracellular calcium measurements (FLIPR), antagonistic activity on orexin-2 receptor; type: cell-based; settings: read-out: IC50 OX2
Sequence of human orexin-2 receptor (O43614 whole entry): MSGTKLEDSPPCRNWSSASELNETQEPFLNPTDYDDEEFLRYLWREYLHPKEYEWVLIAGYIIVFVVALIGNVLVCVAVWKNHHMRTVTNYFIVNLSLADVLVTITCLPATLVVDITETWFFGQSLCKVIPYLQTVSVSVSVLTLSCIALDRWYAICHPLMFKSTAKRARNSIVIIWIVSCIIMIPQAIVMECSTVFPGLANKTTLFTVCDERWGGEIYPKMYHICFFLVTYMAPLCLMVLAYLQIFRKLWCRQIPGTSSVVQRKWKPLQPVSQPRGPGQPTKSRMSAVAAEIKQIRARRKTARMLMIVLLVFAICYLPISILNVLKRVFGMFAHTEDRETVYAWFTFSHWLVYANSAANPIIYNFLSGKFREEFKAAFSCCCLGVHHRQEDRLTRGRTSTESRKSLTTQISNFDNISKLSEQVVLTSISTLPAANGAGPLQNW
Summary of the method: as §1

rodents = settings: cited from earlier work
[8] = CHO cells expressing human orexin-1 receptor, FLIPR, 3 nM orexin-A agonist, 120 min antagonist incubation, geometric mean if determined several times
[9] = CHO cells expressing human orexin-2 receptor, FLIPR, 3 nM orexin-A agonist, 120 min antagonist incubation, geometric mean if determined several times

CNC(=O)[C@@H](c1ccccc1)N1CCc2cc(OC)c(OC)cc2[C@@H]1CCc1ccc(C(F)(F)F)cc1 [(2R)-2-{(1S)-6,7-dimethoxy-1-[2-(4-trifluoromethyl-phenyl)-ethyl]-3,4-dihydro-1H-isoquinolin-2-yl}-N-methyl-2-phenyl-acetamide]
pharmacological activity, nicotine self-administration (rat [1]): displayed pharmacological activity
clinical efficacy, primary insomnia (humans): showed clinical efficacy
cardiovascular responses to conditioned fear and novelty exposure (rats [2]): attenuated cardiovascular responses to conditioned fear and novelty exposure
alertness (active wake and locomotion) (rat [3]): decrease alertness
time spent in REM and NREM sleep (rat [3]): dose-dependently increase the time spent in both REM and NREM sleep
natural activation induced by orexin A (fasted hungry rats): attenuate the natural activation induced by orexin A
activity in animal model of conditioned fear (rat [4]): active
brain levels of amyloid-beta and plaque deposition [5]: decreased brain levels of amyloid-beta (Aβ) as well as AO plaque deposition
antidepressant-like activity (mouse): induce antidepressant-like activity
learning and memory (rats [6]): intact declarative and non-declarative learning and memory

Cc1ccc(C(=O)N2CCOC[C@H]2Cc2cc(-n3nccn3)ccc2F)c(-n2nccn2)c1C [Example 94, (3,4-Dimethyl-2-[1,2,3]triazol-2-yl-phenyl)-[(R)-3-(2-fluoro-5-[1,2,3]triazol-2-yl-benzyl)-morpholin-4-yl]-methanone]
pIC50 (CYP3A4): 4.52
concentration at 3 h ([7]; formulated in 100% PEG400, sampled at 3 h): 654 ng/g
pIC50 (human orexin-1 receptor; [8]): 8.22
pIC50 (human orexin-2 receptor; [9]): 5.45

C[C@@H]1CN(C(=O)c2ccccc2-n2nccn2)[C@H](Cc2cccc(-n3nccn3)c2)CO1 [Example 100, [(2R,5R)-2-Methyl-5-(3-[1,2,3]triazol-2-yl-benzyl)-morpholin-4-yl]-(2-[1,2,3]triazol-2-yl-phenyl)-methanone]
pIC50 (CYP3A4): 4.89
concentration at 1 h [7]: 529 ng/g
pIC50 (human orexin-1 receptor; [8]): 8.22
pIC50 (human orexin-2 receptor; [9]): 6.54

C[C@@H]1CN(C(=O)c2ccccc2-n2nccn2)[C@H](Cc2cc(-n3nccn3)ccc2F)CO1 [Example 116, [(2R,5R)-5-(2-Fluoro-5-[1,2,3]triazol-2-yl-benzyl)-2-methyl-morpholin-4-yl]-(2-[1,2,3]triazol-2-yl-phenyl)-methanone]
pIC50 (CYP3A4): 4.68
concentration at 1 h [7]: 5930 ng/g
pIC50 (human orexin-1 receptor; [8]): 7.68
pIC50 (human orexin-2 receptor; [9]): 6.05

Cc1ccc(C(=O)N2CCOC[C@H]2Cc2cc(-n3nccn3)ccc2Cl)c(-n2nccn2)c1 [Example 120, [(R)-3-(2-Chloro-5-[1,2,3]triazol-2-yl-benzyl)-morpholin-4-yl]-(4-methyl-2-[1,2,3]triazol-2-yl-phenyl)-methanone]
pIC50 (CYP3A4): 4.72
concentration at 1 h [7]: 5130 ng/g
pIC50 (human orexin-1 receptor): 8.52
pIC50 (human orexin-2 receptor): 6.27

O=C(c1ccc(Cl)cc1-n1nccn1)N1CCOC[C@H]1Cc1cc(-n2nccn2)ccc1F [Example 130, (4-Chloro-2-[1,2,3]triazol-2-yl-phenyl)-[(R)-3-(2-fluoro-5-[1,2,3]triazol-2-yl-benzyl)-morpholin-4-yl]-methanone]
pIC50 (CYP3A4): 4.70
concentration at 1 h [7]: 5830 ng/g
pIC50 (human orexin-1 receptor; [8]): 8.52
pIC50 (human orexin-2 receptor; [9]): 6.72

Cn1c(SCC(=O)N2CCC[C@H]2C(=O)Nc2ccccc2-c2ccccc2)nc2ccccc21 [N-biphenyl-2-yl-1-{[(1-methyl-1H-benzimidazol-2-yl)sulfanyl]acetyl}-L-prolinamide]
behavioral and molecular changes induced by repeated amphetamine administration (rodents): reduced behavioral (locomotor sensitization) and molecular (transcriptional responses) changes induced by repeated amphetamine administration
nicotine-reinstatement for a conditioned reinforcer (rodents): inhibited nicotine-reinstatement for a conditioned reinforcer
